Source: patent publication US20070142345A1, “Steroids for cancer treatment” (priority 2004, published 2007)

Tests used:
[1] = molecular target: T1, hER-α (Homo sapiens, UniProt P03372); test: In vitro binding affinity to the estrogen receptor-α, displacement assay with 0.5 nM 3H-estradiol; conditions: hER-α recombinant, insect Sf cells, 0.5 nM 3H-estradiol radioligand, tested 0.03-10.0 nM; for IC50: read-out: ERα-aff IC50; for Ki: read-out: ERα-aff Ki
T1 construct: purchased MDS PharmaServices (contract assay); host or cells: insect Sf cells
T1 sequence (P03372 1-595): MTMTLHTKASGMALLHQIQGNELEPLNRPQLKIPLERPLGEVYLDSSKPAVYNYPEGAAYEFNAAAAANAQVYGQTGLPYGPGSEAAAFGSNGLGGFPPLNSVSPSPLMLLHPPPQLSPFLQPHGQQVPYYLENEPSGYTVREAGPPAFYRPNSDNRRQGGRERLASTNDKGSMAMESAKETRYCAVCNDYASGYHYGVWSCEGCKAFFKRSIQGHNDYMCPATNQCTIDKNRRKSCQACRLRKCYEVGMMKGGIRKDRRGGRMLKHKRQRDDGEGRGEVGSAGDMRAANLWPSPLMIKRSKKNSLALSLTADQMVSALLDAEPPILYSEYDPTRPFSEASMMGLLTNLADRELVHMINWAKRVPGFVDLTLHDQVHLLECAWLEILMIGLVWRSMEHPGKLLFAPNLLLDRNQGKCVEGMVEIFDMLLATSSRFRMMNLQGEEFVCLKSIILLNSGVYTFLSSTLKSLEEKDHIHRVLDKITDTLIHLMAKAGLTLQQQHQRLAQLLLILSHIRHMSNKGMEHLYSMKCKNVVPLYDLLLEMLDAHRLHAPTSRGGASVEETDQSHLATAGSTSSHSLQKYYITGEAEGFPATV
Protocol: In Vitro Binding Affinty to the Estrogen Receptor-α (MDS PharmaServices)
Binding affinity was determined in a displacement assay using hER-α (recombinant, insect Sf cells) with 0.5 nM ^3H-estradiol as radioligand. The compounds were tested in concentrations from 0.03-10.0 nM. Results are given as IC50 and Ki.

[2] = system: ICR derived immature female mice; test: In vivo estrogenic antagonism, estradiol-benzoate challenge, uterine wet weight; design: unit: %; conditions: 10 mg/kg s.c., three consecutive days, estradiol-benzoate 3 μg/kg s.c. challenge, uterus wet weight 24 h after final dose
Protocol: In Vivo Estrogenic Antagonism (MDS PharmaServices)
Compounds were administered s.c. (10 mg/kg) for three consecutive days to a group of 5 ICR derived immature female mice weighing approx. 13 g and challenged with estradiol-benzoate (3 μg/kg s.c.) immediately after each daily dosing. The animals were sacrificed 24 h after the final dose and wet weight of the uterus was measured. A 50% or greater reduction in the estradiol-induced increase in uterine weight indicates possible estrogen antagonist activity.

[3] = system: ICR derived immature female mice; test: In vivo estrogenic agonism, uterine wet weight; conditions: 10 mg/kg s.c., three consecutive days, uterus wet weight 24 h after final dose
Protocol: In Vivo Estrogenic Agonism (MDS PharmaServices)
Compounds were administered s.c. (10 mg/kg) for three consecutive days to a group of 5 ICR derived immature female mice weighing approx. 13 g. The animals were sacrificed 24 h after the final dose and wet weight of the uterus was measured. A 50% or greater increase in the uterine weight relative to the vehicle control group indicates possible estrogen agonist activity.

IC50 [1] [nM] | Ki [1] [nM] | Structure (SMILES) | in vivo antagonism (reduction in the estradiol-induced increase in uterine weight) [2] | In vivo agonism (increase in uterine weight relative to vehicle control) [3] [%]
10.2 | 2.91 | CO[C@H]1c2cc(O)ccc2C2CC[C@@]3(C)C(C[C@@H](O)C34CC4)C2[C@@H]1CCCCCCCCC[S+]([O-])CCCC(F)(F)C(F)(F)F (some centres unmarked) [Ex 8] |  | 
4.75 | 1.36 | C[C@]12CCC3c4ccc(O)cc4C(=O)[C@@H](CCCCCCCCC[S+]([O-])CCCC(F)(F)C(F)(F)F)C3C1C[C@@H](O)C21CC1 (stereo partly drawn) [Ex 10, 17-(1,2-Ethylene)-3,16α-dihydroxy-6-keto-7α-[9-[(4,4,5,5,5-pentafluoro-n-pentyl)sulfinyl]nonyl]-estra-1,3,5(10)-triene] |  | 
1.59 | 0.45 | C[C@]12CCC3c4ccc(O)cc4[C@@H](O)[C@@H](CCCCCCCCC[S+]([O-])CCCC(F)(F)C(F)(F)F)C3C1C[C@@H](O)C21CC1 (stereo partly drawn) [Ex 12, 17-(1,2-Ethylene)-3,6α,16α-trihydroxy-7α-[9-[(4,4,5,5,5-pentafluoro-n-pentyl)sulfinyl]nonyl]-1,3,5(10)-triene] |  | 
> 10 | > 10 | CO[C@@H]1c2cc(O)ccc2C2CC[C@@]3(C)C(C[C@@H](O)C34CC4)C2[C@@H]1CCCCCCCCC[S+]([O-])CCCC(F)(F)C(F)(F)F (stereo partly drawn) [Ex 14, 17-(1,2-Ethylene)-3,16α-dihydroxy-6α-methoxy-7α-[9-[(4,4,5,5,5-pentafluoro-n-pentyl)sulfinyl]nonyl]-estra-1,3,5(10)-triene] |  | 
1.04 | 0.3 | C[C@]12CCC3c4ccc(O)cc4[C@H](F)[C@@H](CCCCCCCCC[S+]([O-])CCCC(F)(F)C(F)(F)F)C3C1C[C@@H](O)C21CC1 (stereo partly drawn) [Ex 16, 17-(1,2-Ethylene)-6β-fluoro-3,16α-dihydroxy-7α-[9-[(4,4,5,5,5-pentafluoro-n-pentyl)sulfinyl]nonyl]-estra-1,3,5(10)-triene] |  | 
0.92 | 0.26 | C[C@]12CCC3c4ccc(O)cc4C[C@@H](CCCCCCCCC[S+]([O-])CCCC(F)(F)C(F)(F)F)C3C1C[C@@H](O)C21CC1 (stereo partly drawn) [Ex 18, 17-(1,2-Ethylene)-3,16α-dihydroxy-7α-[9-[(4,4,5,5,5-pentafluoro-n-pentyl)sulfinyl]nonyl]-estra-1,3,5(10)-triene] |  | 
 |  | CCCCN(C)C(=O)CCCCCCCCCC[C@@H]1Cc2cc(O)ccc2[C@H]2CC[C@]3(C)[C@@H](O)CC[C@H]3[C@H]12 [ICI 164, 384, 11-(3,17β-Dihydroxy-estra-1,3,5(10)-triene-7α-yl)-undecanoic acid n-butyl-methyl-amide, reference compound] | 66 | 
 |  | CC12CCC3c4ccc(O)cc4CC(CCCCCCCCC[S+]([O-])CCCC(F)(F)C(F)(F)F)C3C1CCC2O (centres unmarked) [ICI 182, 780, reference compound] | 66 | 

Structure (SMILES) | IC50 [1] [nM] | Ki [1] [nM] | in vivo antagonism (reduction in the estradiol-induced increase in uterine weight) [2] | In vivo agonism (increase in uterine weight relative to vehicle control) [3] [%]
C=C1[C@H](O)C[C@H]2[C@@H]3[C@H](CCCCCCCCCCC(=O)N(C)CCCC)Cc4cc(O)ccc4[C@H]3CC[C@]12C [Ex 1, 11-(3,16α-Dihydroxy-17-methylene-estra-1,3,5(10)-triene-7α-yl)-undecanoic acid n-butyl-methyl-amide] | 3.5 | 1 | 61 | 1
CCCCN(C)C(=O)CCCCCCCCCC[C@@H]1Cc2cc(O)ccc2C2CC[C@@]3(C)C(C[C@@H](O)C34CC4)C21 (stereo partly drawn) [Ex 4, 11-(17-(1,2-Ethylene)-3,16α-dihydroxy-estra-1,3,5(10)-triene-7α-yl)-undecanoic acid n-butyl-methyl-amide] | 2.48 | 0.71 | 58 | 4
C=C1[C@H](O)CC2C3C(CC[C@]12C)c1ccc(O)cc1C[C@H]3CCCCCCCCC[S+]([O-])CCCC(F)(F)C(F)(F)F (some centres unmarked) [Ex 5] | 1.19 | 0.34 | 55 | 8
